Where two headings read alike, the source gives them in different places. Values belong to the compound of their own block, whether it stands above or below them.
Assays:
[1] = Phase I CYP3A4 metabolism study: sorafenib pharmacokinetics after pretreatment with grapefruit juice or ketoconazole (Part B); conditions: for F (oral bioavailability) / CL: then single sorafenib 10 mg/kg p.o., mean ± SD, n = 6; for F (oral bioavailability): compared to Group A1 (3 mg/kg, i.v.), rat
CYP1A2 = conditions: cited from earlier work
[2] = rat plasma, cited from earlier work; for share of AUC in plasma: metabolite of sorafenib
[3] = dog plasma, cited from earlier work
[4] = human plasma, cited from earlier work
CYP3A4 = conditions: cited from earlier work
[5] = Herbal drug pharmacokinetic interaction study of sorafenib in rat plasma (Part A); assay type: in vivo, Male Sprague-Dawley rats; conditions: for bioavailability: read-out: F (oral bioavailability)
Text: The jugular-catheterized rats were randomly divided into four groups, Groups A1–A4, as described above. […] […] […] Data from these samples were used to construct pharmacokinetic profiles by plotting drug concentrations versus times.

rat liver [6] = assay: Hepatotoxicity study: serum AST and ALT levels (Part D); assay type: in vivo
Protocol: (§1) Hepatotoxicity and histopathological experiments were performed on 42 jugular-catheterized rats that were randomly divided into Groups D1–D7 containing six animals, as described above. In the “Part D” study, an aqueous solution of the LDXGT formulation and sorafenib were each administered to rats by oral gavage. Blood samples were collected from the jugular vein at 0, 0.5 and 1 h after dosing for the […] group. […] Serum was obtained by centrifugation. The levels of the AST and ALT enzymes were determined using an automatic biochemical analysis. After blood sampling, the livers were dissected from the rats in each group and prepared using a series of processes.

rat liver [7] = assay: Histopathological analysis of liver slices, H&E staining (Part D); assay type: in vivo
Protocol: Histopathological analyses were performed to quantitatively evaluate the degree of liver inflammation in our experimental model using a morphometric examination of liver sections and Modified Hepatic Activity Index Grading (Modified HAI Grading; Necroinflammatory Score).
as §1

[8] = Group A2: sorafenib 10 mg/kg, p.o. alone, rat plasma, mean ± SD, n = 6
[9] = Group A4: LDXGT formulation 2 g/kg/day p.o. for 5 consecutive days, then single sorafenib 10 mg/kg p.o., rat plasma, mean ± SD, n = 6
[10] = male, Sprague-Dawley, rat, plasma, iv, 3 mg/kg, Group A1: sorafenib 3 mg/kg, i.v., rat plasma, mean ± SD, n = 6
[11] = male, Sprague-Dawley, rat, plasma, po, 10 mg/kg, Group A2: sorafenib 10 mg/kg, p.o. alone, rat plasma, mean ± SD, n = 6
[12] = male, Sprague-Dawley, rat, plasma, po, 10 mg/kg, Group A3: LDXGT formulation 1 g/kg/day p.o. for 5 consecutive days, then single sorafenib 10 mg/kg p.o., rat plasma, mean ± SD, n = 6
[13] = male, Sprague-Dawley, rat, plasma, po, 10 mg/kg, Group A4: LDXGT formulation 2 g/kg/day p.o. for 5 consecutive days, then single sorafenib 10 mg/kg p.o., rat plasma, mean ± SD, n = 6

Structure (SMILES): CC(=O)N1CCN(c2ccc(OCC3COC(Cn4ccnc4)(c4ccc(Cl)cc4Cl)O3)cc2)CC1 (stereo not drawn) [ketoconazole]
effect on the pharmacokinetics of a single oral sorafenib dose ([1]; ketoconazole 400 mg/kg/day, sorafenib 10 mg/kg p.o., rats): did not affect

Structure (SMILES): O=C(O)[C@H]1O[C@@H](Oc2cc3oc(-c4ccccc4)cc(=O)c3c(O)c2O)[C@H](O)[C@@H](O)[C@@H]1O [baicalin]
effect on CYP1A2 activity (CYP1A2; in vitro, baicalin in human liver microsomes): inhibits

Structure (SMILES): CNC(=O)c1cc(Oc2ccc(NC(=O)Nc3ccc(Cl)c(C(F)(F)F)c3)cc2)cc[n+]1[O-] [M-2]
share of AUC in plasma [2]: 0.9 % of AUC
presence of the metabolite in plasma [3]: absent
share of AUC in plasma ([4]; metabolite of sorafenib): 16.7 % of AUC

Structure (SMILES): NC(=O)c1cc(Oc2ccc(NC(=O)Nc3ccc(Cl)c(C(F)(F)F)c3)cc2)ccn1 [M-4]
presence of the metabolite in plasma [2]: detected
presence of the metabolite in plasma [3]: detected
presence of the metabolite in plasma [4]: detected

Structure (SMILES): O=C(Nc1ccc(Oc2ccnc(C(=O)NCO)c2)cc1)Nc1ccc(Cl)c(C(F)(F)F)c1 [M-3]
share of AUC in plasma [2]: 12.1 % of AUC
share of AUC in plasma ([3]; metabolite of sorafenib): 15.6 % of AUC

Structure (SMILES): O=c1cc(-c2ccccc2)oc2cc(O)c(O)c(O)c12 [baicalein]
effect on CYP3A4 enzyme activity (CYP3A4): inhibited

Structure (SMILES): C=C[C@@H]1C2=CCOC(=O)C2=CO[C@H]1O[C@@H]1O[C@H](CO)[C@@H](O)[C@H](O)[C@H]1O [gentiopicroside]
effect on CYP1A2 activity (CYP1A2; microsomes): significant increase
effect on CYP3A4 enzyme activity (CYP3A4): significant increase

time after administration at which maximal plasma concentrations (Cmax) were observed ([5]; Group A2: single sorafenib 10 mg/kg, p.o., rat plasma, approximately): 3 to 8 h
CL [5, 8]: 1.8 ± 0.7 mL/min/kg
Vss [5, 8]: 1.564 ± 0.477 L/kg
CL ([5]; Group A3: LDXGT formulation 1 g/kg/day p.o. for 5 consecutive days, then single sorafenib 10 mg/kg p.o., rat plasma, mean ± SD, n = 6): 2.1 ± 0.8 mL/min/kg
F (oral bioavailability) ([5]; Group A4: LDXGT formulation 2 g/kg/day p.o. for 5 consecutive days, then single sorafenib 10 mg/kg p.o., compared to Group A1 (3 mg/kg, i.v.), rat, mean ± SD, n = 6): 49 ± 5.0%
CL [5, 9]: 1.8 ± 0.2 mL/min/kg
Vss [5, 9]: 1.565 ± 0.231 L/kg
time after administration at which maximal plasma concentrations were reached ([5]; each of Groups A2–A4 (sorafenib 10 mg/kg p.o. alone or after LDXGT 1 or 2 g/kg/day), rat plasma, approximately): 3 to 8 h
concentration at 8 min ([5]; male, Sprague-Dawley, rat, plasma, intravenous, 3 mg/kg): 2840 ng/mL
clearance ([5]; male, Sprague-Dawley, rat, plasma, iv, 3 mg/kg): 1.1 ± 0.4 mL/min/kg
AUC [5, 10]: 56000 ng·h/mL
Cmax [5, 10]: 4600 ± 200 ng/mL
half-life [5, 10]: 8.32 ± 4.58 h
Vd ([5]; male, Sprague-Dawley, rat, plasma, iv, 3 mg/kg, read-out: Vss): 1.19 ± 0.129 L/kg
bioavailability ([5]; male, Sprague-Dawley, rat, plasma, po, 10 mg/kg, Group A2: sorafenib 10 mg/kg, p.o. alone, compared to Group A1 (3 mg/kg, i.v.), rat, mean ± SD, n = 6): 56 ± 20%
AUC [5, 11]: 104000 ng·h/mL
Cmax [5, 11]: 5000 ± 1400 ng/mL
Tmax [5, 11]: 7 h
half-life [5, 11]: 10.5 ± 1.97 h
AUC [5, 12]: 94200 ng·h/mL
Cmax [5, 12]: 4800 ± 1000 ng/mL
Tmax [5, 12]: 6.33 h
half-life [5, 12]: 10.8 ± 3.2 h
AUC [5, 13]: 91500 ng·h/mL
Cmax [5, 13]: 4800 ± 700 ng/mL
Tmax [5, 13]: 5.17 h
half-life [5, 13]: 9.9 ± 2.55 h
bioavailability ([5]; male, Sprague-Dawley, rat, plasma, po, 10 mg/kg): 50 ± 24%
pharmacokinetic properties across doses (concentration versus time profile) ([5]; pilot study, single dose 10, 20 and 40 mg/kg, p.o., rat plasma): dose-dependent
F (oral bioavailability) ([1]; Group B1 (GFJ3): grapefruit juice 3 mL/day p.o. for 5 consecutive days): 45 ± 11%
CL ([1]; Group B1 (GFJ3): grapefruit juice 3 mL/day p.o. for 5 consecutive days, rat plasma): 2.0 ± 0.4 mL/min/kg
F (oral bioavailability) ([1]; Group B2 (GFJ6): grapefruit juice 6 mL/day p.o. for 5 consecutive days): 39 ± 14%
CL ([1]; Group B2 (GFJ6): grapefruit juice 6 mL/day p.o. for 5 consecutive days, rat plasma): 2.6 ± 1.1 mL/min/kg
F (oral bioavailability) ([1]; Group B4 (KCZ40): ketoconazole 40 mg/kg/day p.o. for 5 consecutive days): 42 ± 14%
CL ([1]; Group B4 (KCZ40): ketoconazole 40 mg/kg/day p.o. for 5 consecutive days, rat plasma): 2.3 ± 0.8 mL/min/kg
time after administration at which maximal plasma concentrations were achieved ([1]; each of Groups A2, B1–B4 (sorafenib 10 mg/kg p.o. alone or after grapefruit juice or ketoconazole), rat plasma, approximately): 3 to 8 h
bioavailability ([1]; male, Sprague-Dawley, in vivo, po, 10 mg/kg): 52 ± 4.3%
Structure (SMILES): CNC(=O)c1cc(Oc2ccc(NC(=O)Nc3ccc(Cl)c(C(F)(F)F)c3)cc2)ccn1 [sorafenib, Sorafenib]
liver function (AST and ALT) (rat liver [6]; repeated sorafenib 10 mg/kg for 2 weeks alone or combined with LDXGT, Groups D5–D7): marked elevation
liver function (AST and ALT) (rat liver [6]; single sorafenib dose 10 mg/kg p.o. alone or after LDXGT pretreatment, among Groups D2–D4, 0, 3 and 6 h after dosing): No significant difference
liver histopathology (H&E staining) (rat liver [7]; repeated administration groups, Groups D5–D7 (sorafenib 10 mg/kg for 2 weeks, alone or with LDXGT)): marked focal inflammation, portal inflammation, focal hemorrhage and congestion, focal lytic necrosis and hepatocyte apoptosis, liver cell degeneration and disrupted intercellular cohesion
liver histopathology (H&E staining) (rat liver [7]; single-dose groups, Groups D1–D4 (sorafenib 3 mg/kg i.v. or 10 mg/kg p.o., alone or after LDXGT)): focal inflammation, portal inflammation, focal hemorrhage and congestion, focal lytic necrosis and hepatocyte apoptosis

From paper PMC6152211 (Molecules : A Journal of Synthetic Chemistry and Natural …, 2017)
